Laboratory results: the supplement of paper PMC11061612

Assays:
MK-2206 = compound: NC1(c2ccc(-c3nc4ccn5c(=O)[nH]nc5c4cc3-c3ccccc3)cc2)CCC1 [MK-2206]; details: max 10 µM
How it was run: (§1)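 Following 24 hours at 37°C and 5% CO2, cancer cell lines in 1536-well plates with 7.5 μl DMEM/F12 or RPMI and 10% FBS were dosed for 72 hours, final DMSO typically being 0.2%. CellTiter-Glo 2.0 luminescence, scaled between blank-well and DMSO-well means, gave the viability readout. Dose responses were fitted to a two-parameter logistic curve with a non-linear mixed effects model, and the single-agent IC50 was derived from this fit.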

AZD2811 = compound: CCN(CCO)CCCOc1ccc2c(Nc3cc(CC(=O)Nc4cccc(F)c4)[nH]n3)ncnc2c1 [AZD2811]; details: max 1 µM
How it was run: as §1

AZD5991 = compound: Cc1c2c(nn1C)CSCc1cc(n(C)n1)CSc1cc(c3ccccc3c1)OCCCc1c(C(=O)O)n(C)c3c-2c(Cl)ccc13 [AZD5991]; details: max 1 µM
How it was run: as §1

Gefitinib = compound: COc1cc2ncnc(Nc3ccc(F)c(Cl)c3)c2cc1OCCCN1CCOCC1 [Gefitinib]; details: max 10 µM
How it was run: as §1

AZD5153 = compound: COc1nnc2ccc(N3CCC(c4ccc(OCCN5CCN(C)C(=O)[C@H]5C)cc4)CC3)nn12 [AZD5153]; details: max 1 µM
How it was run: as §1

SN-38 = compound: CCc1c2c(nc3ccc(O)cc13)-c1cc3c(c(=O)n1C2)COC(=O)[C@]3(O)CC [SN-38]; details: max 0.3 µM
How it was run: as §1

Lapatinib = compound: CS(=O)(=O)CCNCc1ccc(-c2ccc3ncnc(Nc4ccc(OCc5cccc(F)c5)c(Cl)c4)c3c2)o1 [Lapatinib]; details: max 10 µM
How it was run: as §1

AZD7648 = compound: Cc1cc2ncnn2cc1Nc1ncc2c(n1)n(C1CCOCC1)c(=O)n2C [AZD7648]; details: max 10 µM
How it was run: as §1

[1] = compound: O=C(Nc1ccc2[nH]nc(-c3ccncc3)c2c1)[C@@H]1CCN(CC(=O)N2CCN(c3ccc(-c4ncccn4)cc3)CC2)C1; details: max 5 µM
How it was run: as §1

SRA737 = compound: N#Cc1cnc(Nc2cc(NC[C@H]3CNCCO3)c(C(F)(F)F)cn2)cn1 [SRA737]; details: max 10 µM
How it was run: as §1

Gemcitabine = compound: Nc1ccn([C@@H]2O[C@H](CO)[C@@H](O)C2(F)F)c(=O)n1 [Gemcitabine]; details: max 0.3 µM
How it was run: as §1

5-Fluorouracil = compound: O=c1[nH]cc(F)c(=O)[nH]1 [5-Fluorouracil]; details: max 20 µM
How it was run: as §1

Venetoclax = compound: CC1(C)CCC(CN2CCN(c3ccc(C(=O)NS(=O)(=O)c4ccc(NCC5CCOCC5)c([N+](=O)[O-])c4)c(Oc4cnc5[nH]ccc5c4)c3)CC2)=C(c2ccc(Cl)cc2)C1 [Venetoclax]; details: max 1 µM
How it was run: as §1

Dasatinib = compound: CC1=C(C(=CC=C1)Cl)NC(=O)C2=CN=C(S2)NC3=CC(=NC(=N3)C)N4CCN(CC4)CCO [Dasatinib]; details: max 2 µM
How it was run: as §1

Crizotinib = compound: C[C@@H](Oc1cc(-c2cnn(C3CCNCC3)c2)cnc1N)c1c(Cl)ccc(F)c1Cl [Crizotinib]; details: max 10 µM
How it was run: as §1

Paclitaxel = compound: CC(=O)O[C@H]1C(=O)[C@@]2(C)[C@H]([C@H](OC(=O)c3ccccc3)[C@]3(O)C[C@H](OC(=O)[C@H](O)[C@@H](NC(=O)c4ccccc4)c4ccccc4)C(C)=C1C3(C)C)[C@]1(OC(C)=O)CO[C@@H]1C[C@@H]2O [Paclitaxel]; details: max 3 µM
How it was run: as §1

AZD6738 = compound: C[C@@H]1COCCN1C2=NC(=NC(=C2)C3(CC3)[S@](=N)(=O)C)C4=C5C=CNC5=NC=C4 [AZD6738]; details: max 10 µM
How it was run: as §1

Taselisib = compound: Cc1nc(-c2cn3c(n2)-c2ccc(-c4cnn(C(C)(C)C(N)=O)c4)cc2OCC3)n(C(C)C)n1 [Taselisib]; details: max 10 µM
How it was run: as §1

Etoposide = compound: COc1cc([C@@H]2c3cc4c(cc3[C@@H](O[C@@H]3O[C@@H]5CO[C@@H](C)O[C@H]5[C@H](O)[C@H]3O)[C@H]3COC(=O)[C@H]23)OCO4)cc(OC)c1O [Etoposide]; details: max 10 µM
How it was run: as §1

AZD4320 = compound: CN(CC[C@H](CSC1=CC=CC=C1)NC2=C(C=C(C=C2)S(=O)(=O)NC(=O)C3=CC=C(C=C3)N4CCC(CC4)[C@H](C5=CC=CC=C5C6=CC=C(C=C6)Cl)O)S(=O)(=O)C(F)(F)F)CCO [AZD4320]; details: max 1 µM
How it was run: as §1

AZD0156 = compound: CN(C)CCCOc1ccc(-c2ccc3ncc4c(c3c2)n(C2CCOCC2)c(=O)n4C)cn1 [AZD0156]; details: max 3 µM
How it was run: as §1

Savolitinib = compound: C[C@@H](c1ccc2nccn2c1)n1nnc2ncc(-c3cnn(C)c3)nc21 [Savolitinib]; details: max 1 µM
How it was run: as §1

Selumetinib = compound: Cn1cnc2c(F)c(Nc3ccc(Br)cc3Cl)c(C(=O)NOCCO)cc21 [Selumetinib]; details: max 10 µM
How it was run: as §1

AZD5363 = compound: C1CN(CCC1(C(=O)N[C@@H](CCO)C2=CC=C(C=C2)Cl)N)C3=NC=NC4=C3C=CN4 [AZD5363]; details: max 10 µM
How it was run: as §1

AZD1390 = compound: CC(C)n1c(=O)n(C)c2cnc3cc(F)c(-c4ccc(OCCCN5CCCCC5)nc4)cc3c21 [AZD1390]; details: max 0.3 µM
How it was run: as §1

Trametinib = compound: CC(=O)Nc1cccc(-n2c(=O)n(C3CC3)c(=O)c3c(Nc4ccc(I)cc4F)n(C)c(=O)c(C)c32)c1 [Trametinib]; details: max 1 µM
How it was run: as §1

Palbociclib = compound: CC(=O)c1c(C)c2cnc(Nc3ccc(N4CCNCC4)cn3)nc2n(C2CCCC2)c1=O [Palbociclib]; details: max 10 µM
How it was run: as §1

AZD8186 = compound: C[C@@H](Nc1cc(F)cc(F)c1)c1cc(C(=O)N(C)C)cc2c(=O)cc(N3CCOCC3)oc12 [AZD8186]
How it was run: as §1

Carboplatin = compound: C1CC(C1)(C(=O)[O-])C(=O)[O-].N.N.[Pt+2] [Carboplatin]; details: max 10 µM
How it was run: as §1

AZD1775 = compound: C=CCn1c(=O)c2cnc(Nc3ccc(N4CCN(C)CC4)cc3)nc2n1-c1cccc(C(C)(C)O)n1 [AZD1775]; details: max 3 µM
How it was run: as §1

Olaparib = compound: O=C(c1cc(Cc2n[nH]c(=O)c3ccccc23)ccc1F)N1CCN(C(=O)C2CC2)CC1 [Olaparib]; details: max 10 µM
How it was run: as §1

Prexasertib = compound: COc1cccc(OCCCN)c1-c1cc(Nc2cnc(C#N)cn2)n[nH]1 [Prexasertib]; details: max 1 µM
How it was run: as §1

Doxorubicin = compound: COc1cccc2c1C(=O)c1c(O)c3c(c(O)c1C2=O)C[C@@](O)(C(=O)CO)C[C@@H]3O[C@H]1C[C@H](N)[C@H](O)[C@H](C)O1 [Doxorubicin]; details: max 1 µM
How it was run: as §1

Capivasertib = compound: C1CN(CCC1(C(=O)N[C@@H](CCO)C2=CC=C(C=C2)Cl)N)C3=NC=NC4=C3C=CN4 [Capivasertib]; details: max 10 µM
How it was run: as §1

Alisertib = compound: COc1cc(Nc2ncc3c(n2)-c2ccc(Cl)cc2C(c2c(F)cccc2OC)=NC3)ccc1C(=O)O [Alisertib]; details: max 10 µM
How it was run: as §1

SG3199 = compound: CC1=CN2[C@@H](C1)C=NC3=CC(=C(C=C3C2=O)OC)OCCCCCOC4=C(C=C5C(=C4)N=C[C@@H]6CC(=CN6C5=O)C)OC [SG3199]; details: max 0.001 µM
How it was run: as §1

Cell Line: HCC-44 (Lung Adenocarcinoma)
- IC50, cell viability 72 h (MK-2206): > 10000 nM
- IC50, cell viability 72 h (AZD2811): > 1000 nM
- IC50, cell viability 72 h (AZD5991): > 1000 nM
- IC50, cell viability 72 h (Gefitinib): > 10000 nM
- IC50, cell viability 72 h (AZD5153): 290 nM
- IC50, cell viability 72 h (SN-38): 177 nM
- IC50, cell viability 72 h (Lapatinib): > 10000 nM
- IC50, cell viability 72 h (AZD7648): > 10000 nM
- IC50, cell viability 72 h [1]: 2800 nM
- IC50, cell viability 72 h (SRA737): > 10000 nM
- IC50, cell viability 72 h (Gemcitabine): 225 nM
- IC50, cell viability 72 h (5-Fluorouracil): > 20000 nM
- IC50, cell viability 72 h (Venetoclax): > 1000 nM
- IC50, cell viability 72 h (Dasatinib): 705 nM
- IC50, cell viability 72 h (Crizotinib): 8920 nM
- IC50, cell viability 72 h (Paclitaxel): 13.6 nM
- IC50, cell viability 72 h (AZD6738): > 10000 nM
- IC50, cell viability 72 h (Taselisib): 2240 nM
- IC50, cell viability 72 h (Etoposide): > 10000 nM
- IC50, cell viability 72 h (AZD4320): > 1000 nM
- IC50, cell viability 72 h (AZD0156): > 3000 nM
- IC50, cell viability 72 h (Savolitinib): > 1000 nM
- IC50, cell viability 72 h (Selumetinib): > 10000 nM
- IC50, cell viability 72 h (AZD5363): 9960 nM
- IC50, cell viability 72 h (AZD1390): > 300 nM
- IC50, cell viability 72 h (Trametinib): 236 nM
- IC50, cell viability 72 h (Palbociclib): > 10000 nM
- IC50, cell viability 72 h (AZD8186; max 10 µM): > 10000 nM
- IC50, cell viability 72 h (Carboplatin): > 10000 nM
- IC50, cell viability 72 h (AZD1775): 934 nM
- IC50, cell viability 72 h (Olaparib): > 10000 nM

Cell Line: HuO-3N1 (Osteosarcoma)
- IC50, cell viability 72 h (MK-2206): > 10000 nM
- IC50, cell viability 72 h (AZD2811): > 1000 nM
- IC50, cell viability 72 h (AZD5991): 613 nM
- IC50, cell viability 72 h (Gefitinib): > 10000 nM
- IC50, cell viability 72 h (AZD5153): > 1000 nM
- IC50, cell viability 72 h (SN-38): 275 nM
- IC50, cell viability 72 h (Lapatinib): > 10000 nM
- IC50, cell viability 72 h (Prexasertib): 529 nM
- IC50, cell viability 72 h (Doxorubicin): 616 nM
- IC50, cell viability 72 h (AZD7648): > 10000 nM
- IC50, cell viability 72 h (Venetoclax): > 1000 nM
- IC50, cell viability 72 h (Dasatinib): 305 nM
- IC50, cell viability 72 h (Crizotinib): > 10000 nM
- IC50, cell viability 72 h (Capivasertib): > 10000 nM
- IC50, cell viability 72 h (AZD6738): > 10000 nM
- IC50, cell viability 72 h (Taselisib): 6880 nM
- IC50, cell viability 72 h (AZD4320): > 1000 nM
- IC50, cell viability 72 h (AZD0156): > 3000 nM
- IC50, cell viability 72 h (Savolitinib): > 1000 nM
- IC50, cell viability 72 h (Selumetinib): > 10000 nM
- IC50, cell viability 72 h (Alisertib): > 10000 nM
- IC50, cell viability 72 h (SG3199): > 1 nM
- IC50, cell viability 72 h (AZD1390): > 300 nM
- IC50, cell viability 72 h (Trametinib): > 1000 nM
- IC50, cell viability 72 h (Palbociclib): > 10000 nM
- IC50, cell viability 72 h (AZD8186; max 3 µM): > 3000 nM
- IC50, cell viability 72 h (AZD1775): > 3000 nM
- IC50, cell viability 72 h (Olaparib): > 10000 nM

Cell Line: RL95-2 (Endometrial Carcinoma)
- IC50, cell viability 72 h (AZD2811): 305 nM
- IC50, cell viability 72 h (AZD5991): 266 nM
- IC50, cell viability 72 h (Gefitinib): > 10000 nM
- IC50, cell viability 72 h (AZD5153): > 1000 nM
- IC50, cell viability 72 h (SN-38): > 300 nM
- IC50, cell viability 72 h (Lapatinib): > 10000 nM
- IC50, cell viability 72 h (Prexasertib): 93.8 nM
- IC50, cell viability 72 h (Doxorubicin): > 1000 nM
- IC50, cell viability 72 h (AZD7648): > 10000 nM
- IC50, cell viability 72 h (Venetoclax): > 1000 nM
- IC50, cell viability 72 h (Dasatinib): > 2000 nM
- IC50, cell viability 72 h (Crizotinib): > 10000 nM
- IC50, cell viability 72 h (Capivasertib): 1400 nM
- IC50, cell viability 72 h (AZD6738): 8390 nM
- IC50, cell viability 72 h (Taselisib): > 10000 nM
- IC50, cell viability 72 h (AZD4320): > 1000 nM
- IC50, cell viability 72 h (AZD0156): > 3000 nM
- IC50, cell viability 72 h (Savolitinib): > 1000 nM
- IC50, cell viability 72 h (Selumetinib): 9130 nM
- IC50, cell viability 72 h (Alisertib): 2140 nM
- IC50, cell viability 72 h (SG3199): > 1 nM
- IC50, cell viability 72 h (AZD1390): > 300 nM
- IC50, cell viability 72 h (Trametinib): 540 nM
- IC50, cell viability 72 h (Palbociclib): > 10000 nM
- IC50, cell viability 72 h (AZD8186; max 3 µM): > 3000 nM
- IC50, cell viability 72 h (AZD1775): 490 nM
- IC50, cell viability 72 h (Olaparib): > 10000 nM
